Measurements taken from ChEMBL document CHEMBL5260836, “Combating Autoimmune Diseases With Retinoic Acid Receptor-Related Orphan Receptor-γ (RORγ or RORc) Inhibitors: Hits and Misses” (J Med Chem, 2018).
In brackets after ≈: the same amount, converted by molar mass. Values belong to the compound of their own block, whether it stands above or below them.

Experiments:
[1] = target: T1, Nuclear receptor ROR-gamma (Homo sapiens, UniProt P51449); assay: Inhibition of transactivation of Gal4-tagged RORgamma (unknown origin) transfected in human HG5LN cells incubated for 18 hrs by luciferase reporter gene assay; type: cell-based
T1 sequence (P51449 whole entry): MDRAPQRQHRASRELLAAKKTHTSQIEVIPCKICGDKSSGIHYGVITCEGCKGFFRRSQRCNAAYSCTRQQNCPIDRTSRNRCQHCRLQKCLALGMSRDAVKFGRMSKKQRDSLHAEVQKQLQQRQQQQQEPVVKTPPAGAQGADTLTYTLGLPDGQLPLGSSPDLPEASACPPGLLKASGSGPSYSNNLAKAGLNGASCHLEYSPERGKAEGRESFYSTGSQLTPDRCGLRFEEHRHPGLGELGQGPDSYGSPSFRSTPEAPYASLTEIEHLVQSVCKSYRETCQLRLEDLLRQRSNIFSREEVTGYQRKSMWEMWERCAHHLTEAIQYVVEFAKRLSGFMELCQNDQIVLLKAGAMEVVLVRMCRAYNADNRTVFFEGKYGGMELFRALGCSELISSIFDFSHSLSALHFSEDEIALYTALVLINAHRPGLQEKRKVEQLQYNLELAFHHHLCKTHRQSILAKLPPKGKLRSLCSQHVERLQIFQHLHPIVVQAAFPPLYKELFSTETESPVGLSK

[2] = target: hERG (KCNH2) (Homo sapiens, UniProt Q12809); assay: Inhibition of human ERG at 3 uM relative to control; type: toxicity
Chain of hERG (KCNH2) (Q12809 whole entry, the tested form may be a part): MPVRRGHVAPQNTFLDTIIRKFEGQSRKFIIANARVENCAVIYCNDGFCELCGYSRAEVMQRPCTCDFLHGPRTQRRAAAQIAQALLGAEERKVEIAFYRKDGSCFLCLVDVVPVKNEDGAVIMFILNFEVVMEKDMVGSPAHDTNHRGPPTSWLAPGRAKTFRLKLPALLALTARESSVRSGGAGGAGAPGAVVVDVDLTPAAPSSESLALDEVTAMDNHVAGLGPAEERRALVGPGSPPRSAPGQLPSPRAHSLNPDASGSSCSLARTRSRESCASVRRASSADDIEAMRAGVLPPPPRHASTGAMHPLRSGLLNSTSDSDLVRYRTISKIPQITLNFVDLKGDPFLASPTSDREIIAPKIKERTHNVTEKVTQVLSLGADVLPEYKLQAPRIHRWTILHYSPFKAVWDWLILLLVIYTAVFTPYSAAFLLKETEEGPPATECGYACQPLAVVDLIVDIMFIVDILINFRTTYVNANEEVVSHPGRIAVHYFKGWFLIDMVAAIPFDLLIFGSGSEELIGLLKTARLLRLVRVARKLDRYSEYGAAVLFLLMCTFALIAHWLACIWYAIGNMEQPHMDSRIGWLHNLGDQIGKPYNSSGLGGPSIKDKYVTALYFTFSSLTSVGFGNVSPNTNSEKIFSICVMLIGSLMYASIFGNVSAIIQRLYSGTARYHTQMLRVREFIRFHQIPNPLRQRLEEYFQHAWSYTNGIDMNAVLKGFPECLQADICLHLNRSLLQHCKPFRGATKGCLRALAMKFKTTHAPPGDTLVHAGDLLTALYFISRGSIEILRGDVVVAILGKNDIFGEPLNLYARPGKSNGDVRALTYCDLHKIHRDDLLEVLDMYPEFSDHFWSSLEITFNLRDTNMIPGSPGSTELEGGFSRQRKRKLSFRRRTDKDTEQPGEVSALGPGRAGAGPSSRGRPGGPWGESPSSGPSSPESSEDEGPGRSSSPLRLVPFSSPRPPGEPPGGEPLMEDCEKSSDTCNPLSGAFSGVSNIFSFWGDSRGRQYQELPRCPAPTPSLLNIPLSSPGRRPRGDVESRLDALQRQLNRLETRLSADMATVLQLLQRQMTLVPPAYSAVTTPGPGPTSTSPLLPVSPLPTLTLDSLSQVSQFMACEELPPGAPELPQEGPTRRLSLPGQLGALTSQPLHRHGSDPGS

[3] = target: T1, Nuclear receptor ROR-gamma; assay: Inhibition of human GAL4-fused RORgamma LBD transfected in HEK293T cell measured after 24 hrs by luciferase reporter assay; type: cell-based
[4] = Suppression of Th17 polarization in human CD4+ T cells cultured under Th17-skewing conditions measured after 4 days
[5] = Inhibition of IL-17F production in human PBMC by ELISA; type: functional, cell-based
[6] = Inhibition of IL-22 production in human PBMC by ELISA; type: functional, cell-based
[7] = Inhibition of IL-17A production in human PBMC by ELISA; type: functional, cell-based
[8] = Inhibition of IL-21 production in human PBMC by ELISA; type: functional, cell-based
[9] = target: T1, Nuclear receptor ROR-gamma; assay: Inhibition of RORgammat LBD (unknown origin) expressed in Sf21 cells assessed as fluorescence signal by TR-FRET assay
[10] = cells; details: Homo sapiens, PBMC
Description: Inhibition of IL-17 production in human PBMC

[11] = cells; details: Homo sapiens, PBMC, 144 h
Description: Decrease in Tc17 cell differentiation in CD8+ T cells from human PBMC cells cultured under the Tc17-skewing conditions measured after 6 days

[12] = species on record: Homo sapiens; assay: tissue or blood; details: 18 h
Description: Reduction of IL17 level in human whole blood measured after 18 hrs by ELISA

[13] = species on record: Homo sapiens; assay: tissue or blood; details: 18 h; remark: listed apart in the source
Description: Reduction of IL17F level in human whole blood measured after 18 hrs by ELISA

[14] = Half life in mouse; type: ADME, organism-based; details: in vivo
[15] = species on record: Homo sapiens; assay: tissue or blood; details: 18 h; remark: listed apart in the source
Description: Reduction of IL22 level in human whole blood measured after 18 hrs by ELISA

[16] = Oral bioavailability in mouse; type: ADME, organism-based; details: in vivo
[17] = cells; details: Homo sapiens, Th17
Description: Inhibition of IL-17 production in human Th17 cells

[18] = target: T1, Nuclear receptor ROR-gamma; assay: Inverse agonist activity at GAL4-RORgammat LBD (unknown origin) expressed in HEK293 cells measured after 18 to 24 hrs by nuclear receptor assay; type: cell-based
[19] = target: T1, Nuclear receptor ROR-gamma; assay: Inhibition of biotinylated human RORgammat by FRET assay
[20] = target: T2, Nuclear receptor ROR-gamma (Homo sapiens) (UniProt P51449); assay: Inverse agonist activity at GAL4-RORgammat LBD (unknown origin) expressed in HEK293 cells at 1 uM measured after 24 hrs by nuclear receptor assay relative to control; type: cell-based
T2 sequence (whole entry): T1 sequence (P51449 whole entry)

[21] = target: T1, Nuclear receptor ROR-gamma; assay: Inverse agonist activity at human GAL4-RORgamma […] expressed in HEK293 cells measured after 24 hrs by ligand binding assay; type: cell-based
[22] = target: T1, Nuclear receptor ROR-gamma; assay: Inhibition of human RORgammat expressed in COS7 cells by luciferase assay; type: cell-based
[23] = Inhibition of human Th17 cell differentiation; type: functional, cell-based
[24] = species on record: Homo sapiens; assay: Ex-vivo reduction in proinflammatory cytokine levels in psoriasis patient assessed as reduction in IL-17F level in skin tissue at 10 uM measured after 12 to 14 hrs by sRICA assay; type: functional; details: Skin of body, time 12-14 hrs
[25] = species on record: Homo sapiens; assay: Ex-vivo reduction in proinflammatory cytokine levels in psoriasis patient assessed as reduction in IL-22 level in skin tissue at 10 uM measured after 12 to 14 hrs by sRICA assay; type: functional; details: Skin of body, time 12-14 hrs
[26] = test system: Mus musculus; assay: Anti-inflammatory activity against psoriasis mouse model assessed as reduction in epidermal thickness treated topically; type: functional
[27] = species on record: Homo sapiens; assay: Ex-vivo reduction in proinflammatory cytokine levels in psoriasis patient assessed as reduction in IL-19 level in skin tissue at 10 uM measured after 12 to 14 hrs by sRICA assay; type: functional; details: Skin of body, time 12-14 hrs
[28] = species on record: Homo sapiens; assay: Ex-vivo reduction in proinflammatory cytokine levels in psoriasis patient assessed as reduction in IL-17A level in skin tissue at 10 uM measured after 12 to 14 hrs by sRICA assay; type: functional; details: Skin of body, time 12-14 hrs
[29] = Inhibition of SRC1 coactivator recruitment in human PBMC; type: functional, cell-based
[30] = Unbound fraction in human plasma; type: ADME, cell-free
[31] = Oral bioavailability in dog; type: ADME, organism-based, Canis lupus familiaris; details: in vivo
[32] = Oral bioavailability in rat; type: ADME, organism-based; details: in vivo
[33] = Solubility of the compound; type: physicochemical

IC50 [1]: 19 nM
SMILES: Cc1ccc(N(CC(C)C)S(=O)(=O)c2ccc3c(c2)[nH]c(=O)n3CC2CCOCC2)c(C)c1

IC50 [9]: < 500 nM
SMILES: COc1cc2c(cc1N1CCOCC1)CC(Cc1cccc(C(F)(F)F)c1)C2=O (centres undefined)

IC50 [17]: 2.8 nM
SMILES: C[C@H]1CCCCN1C(=O)c1nc(C(=O)NCC(C)(C)O)sc1-c1cnc(NCC(C)(C)C)cc1C(F)(F)F

IC50 [18]: 17 nM
IC50 [19]: 5 nM
SMILES: Cc1ccc([C@H](NC(=O)Cc2ccc3oc([C@@H](O)c4c(C)noc4C)cc3c2)c2ccccc2)c(C)c1

IC50 [17]: 29.8 nM
SMILES: COc1c(NC(=O)c2cccc(C#N)c2)cnc2c1c(C1CCN(C(=O)C3CCCC3)CC1)cn2C

fraction unbound [30]: 0.16
bioavailability [31]: 96%
bioavailability [32]: 34%
solubility [33]: 380 µM (≈ 199 µg/mL)
SMILES: CC(=O)N1Cc2cc(S(C)(=O)=O)ccc2[C@@H]1C(=O)Nc1ccc(C(O)(C(F)(F)F)C(F)(F)F)cc1

The next lines start with the compound.

SMILES: CC[C@H]1c2ncc(C(=O)N[C@@H](CO)c3ccc(S(=O)(=O)CC)cn3)cc2CN1C[C@H]1CC[C@H](C(F)(F)F)CC1
inhibition at 3 µM [2]: 7.7%

SMILES: COC(=O)[C@]12CCC(C)(C)CC1C1C(=O)C=C3[C@@]4(C)C=C(C#N)C(=O)[C@@](C)(O)[C@@H]4CC[C@@]3(C)[C@]1(C)CC2 (some centres undefined)
IC50 [3]: 115 nM
IC50 [4]: 18 nM

SMILES: O=S(=O)(c1ccccc1)N1CCC(Cn2ncc3cc(-c4cn[nH]c4)ccc32)CC1
IC50 [5]: < 10000 nM
IC50 [6]: < 10000 nM
IC50 [7]: < 10000 nM
IC50 [8]: < 10000 nM

SMILES: COc1ccc2c(n1)CCN(C(=O)[C@H]1C[C@@H](CC(=O)O)C1)[C@H]2C(=O)Nc1cc(F)c2c(c1)CCC2(C)C
IC50 [10]: 102 nM
IC50 [11]: 9.5 nM
IC50 [12]: 120 nM
IC50 [13]: 430 nM
half-life [14]: > 4 h
IC50 [15]: 1600 nM
bioavailability [16]: 96%
IC50 [4]: 28 nM

SMILES: NC(=O)Cc1ccc(CNc2ncnc(N3CCOC[C@@H]3c3ccc(C(F)(F)F)cc3)c2F)cc1
inhibition [20]: 80%

SMILES: CCOC(=O)CC1CN(Cc2ccc(-c3ccc(C(O)(C(F)(F)F)C(F)(F)F)cc3)cc2)CCN1Cc1ccncc1 (centres undefined)
IC50 [21]: < 1000 nM

SMILES: O=C(Nc1ccc2c(c1)CN(S(=O)(=O)c1cccc(C(F)(F)F)c1)CCC2)c1c(F)cccc1Cl
IC50 [17]: 40 nM

SMILES: Cc1cnccc1-c1nc(-c2ccccc2)c2c(n1)[C@]1(C)C=C(C#N)C(=O)[C@H](C)[C@H]1CC2
IC50 [3]: 40 nM
IC50 [4]: 39 nM

SMILES: Cc1ncc(C(=O)Nc2cc(F)cc(CN3CCN(C(=O)C4CCCC4)[C@@H](C)C3)c2C)cn1
IC50 [22]: 97 nM
IC50 [23]: 31 nM

SMILES: CCc1ccc(N(CC(C)C)S(=O)(=O)c2ccc(OCC3CCOCC3)c(CO)c2)cc1 [GSK2981278]
inhibition in vivo at 10 µM [24]: > 50%
inhibition in vivo at 10 µM [25]: > 50%
IC50 [10]: 63 nM
inhibition (INH) [26]: 23%
inhibition in vivo at 10 µM [27]: > 50%
inhibition in vivo at 10 µM [28]: > 50%
IC50 [29]: 20 nM
